Source: ChEMBL document CHEMBL5052852, “Substituted hydantoinamides as adamts7 antagonists” (2021)

Key:
[1] = Inhibition of recombinant rat/human ADAMTS12 hybrid using HiLyteFluor-488 DELSSMVLELRGLRT-K(QXL520)-E-NH2 as substrate incubated for 120 mins and measured by FRET assay
[2] = Inhibition of recombinant rat/human ADAMTS7 hybrid using HiLyteFluor-488 DELSSMVLELRGLRT-K(QXL520)-E-NH2 as substrate incubated for 120 mins and measured by FRET assay

| SMILES | IC50 [1] [nM] | IC50 [2] [nM] |
| --- | --- | --- |
| CC(C)C1(CNC(=O)c2cnn(-c3cccc(C#N)c3)n2)NC(=O)NC1=O (stereo in doubt) | 2600 | 78 |
| Cn1ccnc1C1(CNC(=O)c2cnn(-c3ccc(F)cc3)n2)NC(=O)NC1=O (stereo in doubt) | 130 | 2 |
| CC(C)C1(CNC(=O)c2cnn(-c3ccc(F)c(F)c3)n2)NC(=O)NC1=O (stereo in doubt) | 910 | 7 |
| O=C1NC(=O)C(CNC(=O)c2cnn(-c3ccc(F)cc3)n2)(c2ncsc2C(F)(F)F)N1 (stereo in doubt) | 3500 | 27 |
| CC(C)C1(CNC(=O)c2cnn(-c3ccc(Cl)c(F)c3)n2)NC(=O)NC1=O (stereo in doubt) | 1000 | 7 |
| CC(C)C1(CNC(=O)c2cnn(-c3cccc(F)c3)n2)NC(=O)NC1=O (stereo in doubt) | 2300 | 13 |
| Cn1ccnc1C1(CNC(=O)c2cnn(-c3cc(F)c(F)c(F)c3)n2)NC(=O)NC1=O (stereo in doubt) | 108 | 3 |
| CC1(CNC(=O)c2cnn(-c3ccc(F)cc3)n2)NC(=O)NC1=O (stereo in doubt) | 8900 | 83 |
| CCC(C)C1(CNC(=O)c2cnn(-c3ccc(F)cc3)n2)NC(=O)NC1=O (stereo in doubt; form 1) | 2900 | 62 |
| CC1(C)CC1C1(CNC(=O)c2cnn(-c3ccccc3)n2)NC(=O)NC1=O (stereo in doubt; form 1) | 13000 | 320 |
| O=C1NC(=O)C(CNC(=O)c2cnn(-c3ccccc3)n2)(C2CCCOC2)N1 (stereo in doubt; form 1) | 4000 | 150 |
| CCC(C)C1(CNC(=O)c2cnn(-c3ccc(F)cc3)n2)NC(=O)NC1=O (stereo in doubt; form 2) | 1000 | 37 |
| CC1(C)CC1C1(CNC(=O)c2cnn(-c3ccccc3)n2)NC(=O)NC1=O (stereo in doubt; form 2) | 2000 | 38 |
| O=C1NC(=O)C(CNC(=O)c2cnn(-c3ccccc3)n2)(C2CCCOC2)N1 (stereo in doubt; form 2) | 6500 | 250 |
| O=C1NC(=O)C(CNC(=O)c2cnn(-c3ccc(F)cc3)n2)(c2ccccn2)N1 (stereo in doubt; form 2) | 50000 | 590 |
